Columns and labels:
Cyclin E/CDK2 = target: T1, Cyclin E/CDK2 (Homo sapiens, UniProt P24941); assay: CDK2 Assay (Cyclin E/CDK2 in vitro kinase assay); assay type: biochemical; settings: read-out: CDK2 IC50
T1 construct: made in house; host or cells: SF9 cells (baculovirus co-infection)
Source text: BACULOVIRUS CONSTRUCTIONS: Cyclin E was cloned into pVL1393 (Pharmingen, La Jolla, Calif.) by PCR, with the addition of 5 histidine residues at the amino-terminal end to allow purification on nickel resin. The expressed protein was approximately 45 kDa. CDK2 was cloned into pVL1393 by PCR, with the addition of a haemaglutinin epitope tag at the carboxy-terminal end (YDVPDYAS). The expressed protein was approximately 34 kDa in size.
ENZYME PRODUCTION: Recombinant baculoviruses expressing cyclin E and CDK2 were co-infected into SF9 cells at an equal multiplicity of infection (MOI=5), for 48 hrs. Cells were harvested by centrifugation at 1000 RPM for 10 minutes, then pellets lysed on ice for 30 minutes in five times the pellet volume of lysis buffer containing 50 mM Tris pH 8.0, 1 50 mM NaCl, 1% NP40, 1 mM DTT and protease inhibitors (Roche Diagnostics GmbH, Mannheim, Germany). Lysates were spun down at 15000 RPM for 10 minutes and the supernatant retained. 5 ml of nickel beads (for one liter of SF9 cells) were washed three times in lysis buffer (Qiagen GmbH, Germany). Imidazole was added to the baculovirus supernatant to a final concentration of 20 mM, then incubated with the nickel beads for 45 minutes at 4° C. Proteins were eluted with lysis buffer containing 250 mM imidazole. Eluate was dialyzed overnight in 2 liters of kinase buffer containing 50 mM Tris pH 8.0, 1 mM DTT, 10 mM MgCl2, 100 uM sodium orthovanadate and 20% glycerol. Enzyme was stored in aliquots at −70° C.
IN VITRO KINASE ASSAY: Cyclin E/CDK2 kinase assays were performed in low protein binding 96-well plates (Corning Inc, Corning, N.Y.). Enzyme was diluted to a final concentration of 50 μg/ml in kinase buffer containing 50 mM Tris pH 8.0, 10 mM MgCl2, 1 mM DTT, and 0.1 mM sodium orthovanadate. The substrate used in these reactions was a biotinylated peptide derived from Histone H1 (from Amersham, UK). The substrate was thawed on ice and diluted to 2 μM in kinase buffer. Compounds were diluted in 10% DMSO to desirable concentrations. For each kinase reaction, 20 μl of the 50 µg/ml enzyme solution (1 μg of enzyme) and 20 μl of the 2 μM substrate solution were mixed, then combined with 10 μl of diluted compound in each well for testing. The kinase reaction was started by addition of 50 μl of 2 μM ATP and 0.1 μCi of 33P-ATP (from Amersham, UK). The reaction was allowed to run for 1 hour at room temperature. The reaction was stopped by adding 200 μl of stop buffer containing 0.1% Triton X-100, 1 mM ATP, 5 mM EDTA, and 5 mg/ml streptavidine coated SPA beads (from Amersham, UK) for 15 minutes. The SPA beads were then captured onto a 96-well GF/B filter plate (Packard/Perkin Elmer Life Sciences) using a Filtermate universal harvester (Packard/Perkin Elmer Life Sciences.). Non-specific signals were eliminated by washing the beads twice with 2M NaCl then twice with 2 M NaCl with 1% phosphoric acid. The radioactive signal was then measured using a TopCount 96 well liquid scintillation counter (from Packard/Perkin Elmer Life Sciences).
(§1) IC50 DETERMINATIONS: Dose-response curves were plotted from inhibition data generated, each in duplicate, from 8 point serial dilutions of inhibitory compounds. Concentration of compound was plotted against % kinase activity, calculated by CPM of treated samples divided by CPM of untreated samples. To generate IC50 values, the dose-response curves were then fitted to a standard sigmoidal curve and IC50 values were derived by nonlinear regression analysis.

recombinant His-CHK1 = target: T2, recombinant His-CHK1 (Homo sapiens, UniProt O14757); assay: CHK1 SPA Assay; assay type: biochemical; settings: read-out: CHK-1 IC50
T2 construct: His-CHK1, In House Lot P976, MW ˜30 KDa, stored at −80 °C; fused on or other part: His tag
T2 sequence (O14757 1-265 limits assumed): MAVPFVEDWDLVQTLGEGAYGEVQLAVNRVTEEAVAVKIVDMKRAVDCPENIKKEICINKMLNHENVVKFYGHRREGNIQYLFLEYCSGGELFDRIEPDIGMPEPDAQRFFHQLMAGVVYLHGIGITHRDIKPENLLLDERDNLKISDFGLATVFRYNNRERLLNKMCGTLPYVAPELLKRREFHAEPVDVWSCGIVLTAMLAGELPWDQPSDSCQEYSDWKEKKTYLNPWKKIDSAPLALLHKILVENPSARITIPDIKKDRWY
Protocol: An in vitro assay was developed that utilizes recombinant His-CHK1 expressed in the baculovirus expression system as an enzyme source and a biotinylated peptide based on CDC25C as substrate (biotin-[…]).
1) CDC25C Ser 216 C-term Biotinylated peptide substrate (25 mg), stored at −20 °C, Custom Synthesis by Research Genetics: biotin-[…] 2595.4 MW
2) His-CHK1 In House lot P976, 235 ug/mL, stored at −80 °C.
1) Kinase Buffer: 50 mM Tris pH 8.0; 10 mM MgCl2; 1 mM DTT
2) His-CHK1, In House Lot P976, MW ˜30 KDa, stored at −80 °C. […] For 1 plate (100 r×n): dilute 8 μL of 235 μg/mL (7.83 uM) stock in 2 mL Kinase Buffer. This makes a 31 nM mixture. Add 20 μL/well. This makes a final reaction concentration of 6 nM.
3) CDC25C Biotinylated peptide.
Dilute CDC25C to 1 mg/mL (385 uM) stock and store at −20° C. For 1 plate (100 r×n): dilute 10 1L of 1 mg/mL peptide stock in 2 ml Kinase Buffer. This gives a 1.925 μM mix. Add 20 1L/r×n. This makes a final reaction concentration of 385 nM.
For 1 plate (100 r×n): dilute 10 μL of 1 mM ATP (cold) stock and 2 uL fresh P33-ATP (20 μCi) in 5 ml Kinase Buffer. This gives a 2 μM ATP (cold) solution; add 50 μl/well to start the reaction. Final volume is 100 μl/r×n so the final reaction concentrations will be 1 μM ATP (cold) and 0.2 uCi/r×n.
For 1 plate add: To 10 mL Wash Buffer 2 (2M NaCl 1% H3PO4): 1 mL SPA bead slurry (50 mg); Add 100 μL/well
6) Wash buffer 1: 2 M NaCl
7) Wash buffer 2: 2 M NaCl, 1% H3PO4
Dispense 10 μl/r×n to appropriate wells. Add 10 μL 10% DMSO to positive (CHK1+CDC25C+ATP) and negative (CHK1+ATP only) control wells. 2) Thaw enzyme on ice—dilute enzyme to proper concentration in kinase buffer (see Reaction Mixtures) and dispense 20 μl to each well. 3) Thaw the Biotinylated substrate on ice and dilute in kinase buffer (see Reaction Mixtures). Add 20 μL/well except to negative control wells. Instead, add 20 uL Kinase Buffer to these wells. 4) Dilute ATP (cold) and P33-ATP in kinase buffer (see Reaction Mixtures). Add 50 μL/well to start the reaction. 5) Allow the reaction to run for 2 hours at room temperature. 6) Stop reaction by adding 100 uL of the SPA beads/stop solution (see Reaction Mixtures) and leave to incubate for 15 minutes before harvest 7) Place a blank Packard GF/B filter plate into the vacuum filter device (Packard plate harvester) and aspirate […] water through to wet the system. 8) Take out the blank and put in the Packard GF/B filter plate. 9) Aspirate the reaction through the filter plate. 10) Wash: 200 ml each wash; 1× with 2M NaCl; 1× with 2M NaCl/1% H3PO4 11) Allow filter plate to dry 15 min. 12) Put TopSeal-A adhesive on top of filter plate. 13) Run filter plate in Top Count
Settings: • Data mode: CPM • Radio nuclide: Manual SPA:P33 • Scintillator: Liq/plast • Energy Range: Low
as §1

| SMILES | IC50 (Cyclin E/CDK2) | IC50 (recombinant His-CHK1) |
| --- | --- | --- |
| Cc1cc(Nc2nc(C3=CCCNC3)cn3c(-c4cnn(C)c4)cnc23)sc1S(=O)(=O)N1CCOCC1 | 5.95 µM | 0.007 µM |
| Cc1cc(Nc2nc(CCN)cn3c(-c4cnn(C)c4)cnc23)sn1 | 5.94 µM | 0.007 µM |
| Cn1cc(-c2cnc3c(Nc4sncc4C(C)(C)C)nc(CCN)cn23)cn1 | 14.1 µM | 0.011 µM |
| Cn1cc(-c2cnc3c(Nc4cc(C5CCNCC5)ns4)nccn23)cn1 | 18.1 µM | 0.031 µM |
| Cc1cc(Nc2nccn3c(-c4cnn(C)c4)cnc23)sn1 | – | 0.054 µM |
| Cc1cc(Nc2nc(CCNCC3CC3)cn3c(-c4cnn(C)c4)cnc23)sc1S(=O)(=O)N(C)C | – | 0.01 µM |
| Cn1cc(-c2cnc3c(Nc4sncc4C4CCNC4)nccn23)cn1 (centres unmarked) | – | 0.023 µM |
| Cc1cc(Nc2nc(C3=CCCNC3)cn3c(-c4cnn(C)c4)cnc23)sc1S(=O)(=O)NCC1CC1 | 2.14 µM | 0.008 µM |
| Cc1cc(Nc2nc(CC3CCNC3)cn3c(-c4cnn(C)c4)cnc23)sn1 (centres unmarked) | 0.607 µM | 0.007 µM |
| CC(C)c1cnsc1Nc1nc(CCN)cn2c(-c3cnn(C)c3)cnc12 | 0.013 µM | 6.38 µM |
| Cc1cc(Nc2nc(C3=CCCNC3)cn3c(-c4cnn(C)c4)cnc23)sc1C(=O)NC1CCN(S(C)(=O)=O)CC1 | 41 µM | 0.024 µM |
| Cc1cc(Nc2nc(C3=CCCNC3)cn3c(-c4cnn(C)c4)cnc23)sc1S(=O)(=O)N1CCC1 | – | 0.012 µM |
| Cc1cc(Nc2nc(C3=CCCNC3)cn3c(-c4cnn(C)c4)cnc23)sc1S(=O)(=O)NC1CC1 [drawing 1473] | 3.21 µM | 0.007 µM |
| Cn1cc(-c2cnc3c(Nc4ccc5ncccc5c4)nccn23)cn1 | – | 0.492 µM |
| Cc1cc(Nc2nc(C3=CCCNC3)cn3c(-c4cnn(C)c4)cnc23)sn1 | 11 µM | 0.014 µM |
| CC(C)c1cnsc1Nc1nc(C2=CCCNC2)cn2c(-c3cnn(C)c3)cnc12 | 4.21 µM | 0.006 µM |
| Cc1cc(Nc2nc(CCN)cn3c(-c4cnn(C)c4)cnc23)sc1S(=O)(=O)N(C)C | – | 0.014 µM |
| Cc1cc(Nc2nc(C3=CCCNC3)cn3c(-c4cnn(C)c4)cnc23)sc1S(=O)(=O)NCCO | 4.68 µM | 0.006 µM |
| CNCCc1cn2c(-c3cnn(C)c3)cnc2c(Nc2cc(C)ns2)n1 | 11.4 µM | 0.013 µM |

| SMILES | IC50 (Cyclin E/CDK2) | IC50 (recombinant His-CHK1) |
| --- | --- | --- |
| Cc1cc(Nc2nc(CC3CCNC3)cn3c(-c4cnn(C)c4)cnc23)sc1S(=O)(=O)N(C)C (centres unmarked) | 0.983 µM | 0.008 µM |
| Cn1cc(-c2cnc3c(Nc4ccns4)nc(CN)cn23)cn1 | 0.55 µM | 0.017 µM |
| Cn1cc(-c2cnc3c(Nc4sncc4C(C)(C)C)nc(C4=CCCNC4)cn23)cn1 | 13.7 µM | 0.016 µM |
| CCNS(=O)(=O)c1sc(Nc2nc(C3=CCCNC3)cn3c(-c4cnn(C)c4)cnc23)cc1C | – | 0.01 µM |
| Cc1cc(Nc2nc(C3=CCCNC3)cn3c(-c4cnn(C)c4)cnc23)sc1C(N)=O | 16.2 µM | 0.023 µM |
| Cc1ncc(Nc2nc(C3=CCCNC3)cn3c(-c4cnn(C)c4)cnc23)s1 | 4.63 µM | 0.008 µM |
| Cc1cnsc1Nc1nc(CCCN)cn2c(-c3cnn(C)c3)cnc12 | 1.91 µM | 0.005 µM |
| Cc1cc(Nc2nc(C3=CCCNC3)cn3c(-c4cnn(C)c4)cnc23)sc1S(=O)(=O)N(C)C1CC1 | 13.1 µM | 0.018 µM |
| Cc1cc(Nc2nc(C3CCCNC3)cn3c(-c4cnn(C)c4)cnc23)sc1S(=O)(=O)N(C)C (centres unmarked) | – | 0.012 µM |
| CCNC(=O)c1sc(Nc2nc(C3=CCCNC3)cn3c(-c4cnn(C)c4)cnc23)cc1C | – | 0.015 µM |
| Cn1cc(-c2cnc3c(Nc4ccc(-n5ccnc5)cc4)nc(C4=CCCNC4)cn23)cn1 [drawing 1445] | 12.5 µM | 0.097 µM |
| Cn1cc(-c2cnc3c(Nc4sncc4C4CCN(S(C)(=O)=O)C4)nc(CCCN)cn23)cn1 (centres unmarked) | – | 0.008 µM |
| Cc1cc(Nc2nc(C3=CCCNC3)cn3c(-c4cnn(C)c4)cnc23)sc1S(=O)(=O)NC1CC1 [drawing 1469] | 1.58 µM | 0.003 µM |
| Cc1cc(Nc2nc(C3=CCCNC3)cn3c(-c4cnn(C)c4)cnc23)sc1S(C)(=O)=O | 11.6 µM | 0.008 µM |
| Cc1cc(Nc2nc(SC3CCNC3)cn3c(-c4cnn(C)c4)cnc23)sn1 (centres unmarked) | – | 0.019 µM |
| Cc1cc(Nc2nc(C3=CCCNC3)cn3c(-c4cnn(C)c4)cnc23)sc1S(=O)(=O)N(C)C | 5.2 µM | 0.007 µM |
| Cc1cc(Nc2nc(C3=CCCNC3)cn3c(-c4cnn(C)c4)cnc23)sc1C(=O)N(C)C | 24.1 µM | 0.016 µM |
| Cn1cc(-c2cnc3c(Nc4sncc4C4CCCNC4)nccn23)cn1 (centres unmarked) | 21.8 µM | 0.018 µM |
| Cc1cc(Nc2nc(C3=CCCNC3)cn3c(-c4cnn(C)c4)cnc23)sc1-c1cnn(C)c1 | 4.59 µM | 0.019 µM |

— patent US20070105864A1, “Methods for inhibiting protein kinases” (Schering Corporation, priority 2005, published 2007)
